Test results: ChEMBL document CHEMBL1201862, “PubChem BioAssay data set” (2004)
The source made the active and inactive calls.

What was measured:
[1] = Shn3 3'UTR reporter inhibitors, dose response, cell-based, Clone20 osteoblasts, firefly luciferase, cherry-picked (AID 624132); assay type: functional;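 note: firefly luciferase luminescence from reporter carrying the Shn3 3'UTR in osteoblasts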
[2] = control 3'UTR Renilla luciferase suppression, dose response, counter-screen for Shn3 inhibitor project, cell-based, Clone20-Shn3RL, cherry-picked (AID 624133); assay type: functional
[3] = biological target: T1, Carboxy-terminal domain RNA polymerase II polypeptide A small phosphatase 1 (Homo sapiens, UniProt Q9GZU7); test: inhibitors of CTDSP1, concentration-response testing, biochemical assay, absorbance-based, actives from ultra-high-throughput screening (AID 540297); assay type: functional
T1 sequence (Q9GZU7 whole entry): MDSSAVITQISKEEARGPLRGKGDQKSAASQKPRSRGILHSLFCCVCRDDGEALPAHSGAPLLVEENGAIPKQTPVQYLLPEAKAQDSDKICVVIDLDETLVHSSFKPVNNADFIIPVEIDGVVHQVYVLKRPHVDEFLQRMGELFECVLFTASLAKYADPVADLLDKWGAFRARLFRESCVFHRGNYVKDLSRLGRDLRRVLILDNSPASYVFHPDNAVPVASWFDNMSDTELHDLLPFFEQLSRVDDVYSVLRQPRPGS

[4] = intracellular Trypanosoma cruzi inhibitors in host cells – cell-based, plate reader, cherry-pick samples, set 3, dose response (AID 651818); assay type: functional;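 note: compounds incubated with infected cells for about four days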
[5] = biological target: Cytochrome P450 2C19 (Homo sapiens, UniProt P33261); test: Cytochrome panel assay with activity outcomes. Panel member name: p450-cyp2c19 Compounds with AC50 equal or less than 10 uM are considered active; assay type: functional; details: read-out: AC50
[6] = NIH-3T3 fibroblast cytotoxicity, dose response, cytotoxicity control, cell-based, fluorescence, Alamar Blue, secondary assay (AID 2327); assay type: functional;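 note: NIH-3T3 mouse fibroblasts cultured with fluconazole at 8 µg/mL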
[7] = Luminescence Cell-Based Dose Confirmation HTS to Identify Activators of 5'UTR Stem-Loop Driven Alpha-Synuclein mRNA Translation in H4 Neuroglioblastoma Cells. [Related pubchem assays: 1829 (Project Summary), 1814 (Primary HTS)]; assay type: functional
[8] = Luminescence Cell-Based Dose Response HTS to Identify Activators of Luciferase Translation or Activity in H4 […] Cells. [Related pubchem assays: 1829 (Project Summary), 1814 (Primary HTS)]; assay type: functional
[9] = system: Streptococcus sp. 'group A'; test: growth inhibition of control SK(-) GAS strain, dose response, counter-screen for streptokinase expression inhibitor project, luminescence, kanamycin, BacTiterGlo, confirmation (AID 1900); assay type: functional, organism-based
[10] = system: H4; test: Luminescence Cell-Based Dose Response HTS to Identify Activators of 5'UTR Stem-Loop Driven Prion Protein mRNA Translation in H4 Neuroglioblastoma Cells. [Related pubchem assays: 1829 (Project Summary), 1814 (Primary HTS)]; assay type: functional; details: Homo sapiens
[11] = biological target: T2, Streptokinase A (Streptococcus pyogenes serotype M1, UniProt P10520); test: S. pyogenes streptokinase expression inhibitors, potency, dose response, plasminogen activation absorbance, OD405 (AID 1914); assay type: functional, Streptococcus pyogenes M1 GAS;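 note: secreted streptokinase activity via plasminogen activation per viability signal from cell pellet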
T2 sequence (P10520 whole entry): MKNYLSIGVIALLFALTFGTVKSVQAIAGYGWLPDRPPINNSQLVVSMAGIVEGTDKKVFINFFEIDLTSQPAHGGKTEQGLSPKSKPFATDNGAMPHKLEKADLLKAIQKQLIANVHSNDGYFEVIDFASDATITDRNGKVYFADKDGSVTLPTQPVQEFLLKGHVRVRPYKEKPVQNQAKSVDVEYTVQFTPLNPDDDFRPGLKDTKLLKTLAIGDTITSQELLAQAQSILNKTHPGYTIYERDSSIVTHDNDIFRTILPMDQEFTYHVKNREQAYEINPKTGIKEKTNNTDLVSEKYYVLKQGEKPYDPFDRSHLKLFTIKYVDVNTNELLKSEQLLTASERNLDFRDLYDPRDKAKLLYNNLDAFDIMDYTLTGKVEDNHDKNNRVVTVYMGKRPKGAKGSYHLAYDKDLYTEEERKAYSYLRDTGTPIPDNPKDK

[12] = C. albicans growth with fluconazole, confirmation, fluorescence, retest (AID 2467); assay type: functional, cell-based
[13] = system: Streptococcus; test: Group A Streptococcus viability loss, dose response, counter-screen for streptokinase expression inhibitor project, luminescence, BacTiterGlo (AID 1915); assay type: functional, organism-based;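 note: potency for reduction of bacterial viability or growth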
[14] = biological target: T3, Protein skinhead-1 (Caenorhabditis elegans, UniProt P34707); assay type: functional
T3 sequence (P34707 whole entry): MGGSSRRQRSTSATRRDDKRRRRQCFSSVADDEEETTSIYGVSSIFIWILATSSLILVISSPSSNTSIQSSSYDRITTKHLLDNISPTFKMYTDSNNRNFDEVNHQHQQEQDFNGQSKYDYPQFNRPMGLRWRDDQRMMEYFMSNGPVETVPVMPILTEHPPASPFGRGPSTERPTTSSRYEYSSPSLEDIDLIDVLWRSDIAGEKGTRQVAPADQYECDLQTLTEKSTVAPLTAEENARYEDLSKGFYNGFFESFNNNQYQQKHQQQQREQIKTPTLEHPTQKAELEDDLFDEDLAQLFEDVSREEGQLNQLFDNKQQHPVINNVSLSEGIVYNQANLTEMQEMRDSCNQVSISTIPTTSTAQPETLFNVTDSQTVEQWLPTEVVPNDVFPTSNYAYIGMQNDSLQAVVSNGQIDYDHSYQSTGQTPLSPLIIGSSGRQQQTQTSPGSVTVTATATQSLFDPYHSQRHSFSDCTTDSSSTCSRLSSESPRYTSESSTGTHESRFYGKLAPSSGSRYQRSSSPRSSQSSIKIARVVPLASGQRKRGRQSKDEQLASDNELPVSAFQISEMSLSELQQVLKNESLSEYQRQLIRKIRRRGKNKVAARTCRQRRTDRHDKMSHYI

[15] = cells; assay type: functional

Cytochrome P450 2C19, sequence (P33261 whole entry): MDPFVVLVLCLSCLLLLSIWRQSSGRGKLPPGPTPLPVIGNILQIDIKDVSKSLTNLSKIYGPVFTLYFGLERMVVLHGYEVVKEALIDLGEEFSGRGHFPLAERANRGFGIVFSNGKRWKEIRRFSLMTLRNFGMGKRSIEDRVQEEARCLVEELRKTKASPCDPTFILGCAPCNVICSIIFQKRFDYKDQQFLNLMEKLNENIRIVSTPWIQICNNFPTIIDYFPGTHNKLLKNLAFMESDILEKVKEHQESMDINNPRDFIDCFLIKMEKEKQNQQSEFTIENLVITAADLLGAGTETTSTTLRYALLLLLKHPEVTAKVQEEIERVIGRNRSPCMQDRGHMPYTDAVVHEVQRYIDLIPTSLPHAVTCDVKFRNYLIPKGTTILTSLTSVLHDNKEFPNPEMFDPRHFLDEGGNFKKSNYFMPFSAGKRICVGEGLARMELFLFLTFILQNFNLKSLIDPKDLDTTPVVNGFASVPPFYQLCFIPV

In the case of `O=C(C1=C[C@@H](C2CC2)C[C@@H](OCCCCO)O1)N1CCN(Cc2ccccc2)CC1`, the AC50 [1] is reported as > 70 µM (inactive) and the AC50 [2] is reported as > 70 µM (inactive).
For `NC(=O)c1ccc(NC(=O)COC(=O)c2cc3c(s2)CCC3)cc1`, the IC50 [3] was 4.91 µM (active).
In the case of `C[C@@H]1CN([C@@H](C)CO)C(=O)c2cccc(NC(=O)Nc3ccc4c(c3)OCO4)c2O[C@H]1CN(C)Cc1ccc(Cl)c(Cl)c1`, the AC50 [4] is reported as 2.22 µM (active).
In the case of `C[C@@H]1CCCCO[C@H](CN(C)Cc2ccc(Cl)c(Cl)c2)[C@@H](C)CN([C@H](C)CO)C(=O)c2cc(NC(=O)CCCCCC(=O)Nc3ccccc3N)ccc2O1`, the AC50 [4] is reported as 2.65 µM (active).
With `C[C@@H]1CCCCO[C@@H](CN(C)CC2CCCCC2)[C@@H](C)CN([C@H](C)CO)C(=O)c2cc(NC(=O)Nc3ccc(F)cc3)ccc2O1` the AC50 [4] was 1.64 µM (active).
In the case of `C=C(C)CCOC(=O)C(CC(=O)O)NCc1ccco1` (stereo unspecified), the IC50 [3] is reported as 4.85 µM (active).
For `O=C(Cn1cnc2sc(-c3ccccc3)cc2c1=O)NCc1ccccc1`, the IC50 [3] was 7.5 µM (active).
For `Cc1ccc2cc(C)c3nnc(SCC(=O)NCc4ccco4)n3c2c1`, the AC50 [5] was 14.1 µM (inconclusive) and the IC50 [3] was 8.54 µM (active).
With `C[C@H](CO)N1C[C@H](C)[C@@H](CN(C)Cc2ccc3c(c2)OCO3)Oc2c(NC(=O)CCCCCC(=O)Nc3ccccc3N)cccc2C1=O` the AC50 [4] was 2.21 µM (active).
With `CC1=C/C(=N\NC(=S)NCCc2ccccc2)CC(C)(C)C1` the EC50 [6] was > 150 µM (inactive), the EC50 [7] was 12.1 µM (active) and the EC50 [8] was 14.2 µM (active). The EC50 [9] was 11.4 µM (active), the EC50 [10] was > 120 µM (not active) and the EC50 [11] was 64 µM (active). For the same compound, the EC50 [12] was > 38 µM (not active) and the EC50 [13] was > 150 µM (not active).
In the case of `C[C@@H]1CCCCO[C@H](CN(C)C(=O)Nc2ccc(C(F)(F)F)cc2)[C@@H](C)CN([C@H](C)CO)C(=O)c2cc(NC(=O)NC3CCCCC3)ccc2O1`, the AC50 [4] is reported as 2.45 µM (active).
In the case of `C[C@H]1CN([C@@H](C)CO)C(=O)Cc2cc(NC(=O)Nc3ccc4c(c3)OCO4)ccc2O[C@H]1CN(C)Cc1ccc(-c2ccccc2)cc1`, the AC50 [4] is reported as 6.07 µM (active).
For `C[C@@H]1CN([C@@H](C)CO)C(=O)c2cccc(NC(=O)CCCCCC(=O)Nc3ccccc3N)c2O[C@H]1CN(C)Cc1ccc(Oc2ccccc2)cc1`, the AC50 [4] was 2.21 µM (active).
With `C[C@H]1CN([C@@H](C)CO)C(=O)Cc2cc(N(C)C)ccc2O[C@@H]1CN(C)Cc1ccc(Cl)c(Cl)c1` the AC50 [4] was 2.09 µM (active).
For `C=CCNC(=O)c1cc2c(=O)n3ccccc3nc2s1`, the EC50 [7] was 1.08 µM (active), the EC50 [8] was 0.166 µM (active) and the IC50 [14] was > 100 µM (inactive).
With `CCOc1ccccc1C(=O)OCC(=O)Nc1nnc(-c2ccccc2)o1` the EC50 [9] was 4.56 µM (active), the EC50 [11] was > 150 µM (not active) and the EC50 [13] was 14.6 µM (active). The IC50 [15] was 19.2 µM (active).
With `Cc1nn(-c2ccccc2)c(Cl)c1/C=N/NC(=O)c1ccc(NS(=O)(=O)c2cccs2)cc1` the EC50 [7] was 17.3 µM (active), the EC50 [8] was 7.45 µM (active) and the EC50 [9] was 2.1 µM (active). For the same compound, the EC50 [10] was 9.52 µM (active) and the EC50 [13] was 5.04 µM (active).
For `CC(C)NC(=O)N(C)C[C@H]1Oc2c(NC(=O)c3cnccn3)cccc2C(=O)N([C@H](C)CO)C[C@H]1C`, the AC50 [4] was 3.41 µM (active).
With `Sc1c2c(nc3ncnn13)CCC2` the IC50 [15] was 16.6 µM (active).
For `O=C(NC(=S)N1CCN(C/C=C/c2ccccc2)CC1)c1ccco1`, the IC50 [15] was 32.2 µM (active).
For `Cc1ccc(S(=O)(=O)Nc2ccc3c(c2)C(=O)N([C@@H](C)CO)C[C@H](C)[C@@H](CN(C)Cc2ccc(-c4ccccc4)cc2)O3)cc1`, the AC50 [4] was 3.88 µM (active).
With `CCOc1ccc(CNC(=O)Cn2nc(C)c3c(C)n(-c4ccc(C)cc4)nc3c2=O)cc1` the IC50 [3] was 6.46 µM (active).
For `C=CCN1C(=O)C(=O)N(Cc2nc3ccccc3s2)C1=O`, the EC50 [7] was 10.7 µM (active), the EC50 [8] was 36.3 µM (active) and the EC50 [10] was 0.283 µM (active). The IC50 [14] was > 100 µM (inactive).
With `CCCOC(=O)c1ccc(-c2ccc(C=O)o2)cc1` the IC50 [15] was 9.73 µM (active).
In the case of `COc1cc(Cl)c(C)cc1NC(=O)CSc1sc2c(O)cc(=O)[nH]c2c1C#N`, the IC50 [3] is reported as 2.46 µM (active).
